Source: patent US12692257B2, “2,4,6-tri-substituted pyrimidine compounds as ATR kinase inhibitors” (BEIJING TIDE PHARMACEUTICAL CO., LTD., priority 2020, dated 2026)

Columns and labels:
ATR kinase = ATR kinase (Homo sapiens, UniProt Q13535); test: Assay of ATR kinase activity (time-resolved fluorescence, phosphorylation of p53-derived protein); format: biochemical
Method: Biotinylated protein derived from p53 (Eurofins, art. No.: 14-952) was phosphorylated with ATR kinase. The amount of phosphorylated protein was determined by time-resolved fluorescence in this assay. The amount of phosphorylated protein was detected by anti-p53-phospho-(serine 15)-K-specific antibody (Cisbio, art. No.: 61GSTDLA) and d2 labeled anti-GST antibody (Cisbio, art. No. 61P08KAE). Before the assay, the following working solutions were formulated as required: 1×reaction buffer (20 mM HEPES PH8.0, 1% glycerol, 0.01% Brij-35), dilution buffer (20 mM HEPES PH8.0, 1% glycerol, 0.01% Brij-35, 5 mM DTT and 1% BSA), stop solution (20 mM HEPES PH8.0, 1% glycerol, 0.01% Brij-35, 250 mM EDTA), detection buffer (50 mM HEPES pH7.0, 150 mM NaCl, 267 mM KF, 0.1% sodium cholate, 0.01% Tween-20, 0.0125% sodium azide). The reagents used above were purchased from Sigma or Invitrogen, except for those whose manufacturers were mentioned.
Operations were as follows:
4× serially diluted compound solutions were prepared with 1× reaction buffer to give 9 compound solutions with different concentrations, and 2.5 μL of the 4× serially diluted compound solutions were added to a 384-well analysis plate (784075, Greiner). 4×p53 substrate working solution (40 nM) was prepared with 1× reaction buffer, and 2.5 μL of the 4×p53 substrate working solution was added to a 384-well analysis plate. 4×ATR/ATRIP working solution (12.8 ng/μL) was prepared with dilution buffer, and 2.5 μL of the 4×pATR/ATRIP working solution was added to a 384-well analysis plate. 4×ATP working solution (2 mM) was prepared with deionized water, and 2.5 μL of the 4×ATP working solution was added to a 384-well analysis plate. The plates were incubated at room temperature in dark for 30 minutes. 5 μL of stop solution was added to the 384 analysis plates. Finally, 5 μL of assay mixture (0.084 ng/μL Anti-phospho-p53(ser15)-K and 5 ng/μL Anti-GST-d2) was added to the 384 well analysis plates, and incubated at room temperature overnight. The fluorescence signal was detected with ENVISION (Perkinelmer) instrument (excitation wavelength: 320 nm, emission wavelength: 665 nm and 615 nm). The inhibition rate in each well was calculated by the fluorescence intensity value in each well:ER (Emission Ratio)=(Fluorescence intensity at 665 nm/Fluorescence intensity at 615 nm); inhibition rate=(ER of positive−ER of assay compound)/(ER of positive−ER of negative)×100%. IC50 values of compounds were calculated by standard software for parameter fitting (GraphPad Prism 6.0).

MV4-11 (leukemia) = test: Cell proliferation inhibition in vitro, CellTiter-Glo, MV4-11; format: cell-based; conditions: Homo sapiens; MV4-11 cells, 120 hours, CellTiter-Glo; read-out: MV4-11/IC50/μM
Method: (§1) By detecting the effect of compounds on cell activity in vitro in tumor cell lines TOV21G (ovarian cancer) and MV4-11 (leukemia), the inhibitory effect of compounds on cell proliferation was studied in this assay.
(§2) TOV21G cells and MV4-11 cells were purchased from American Type Culture Collection (ATCC).
MV-4-11 cells were cultured in IMDM medium (containing 20% of FBS). About 10,000 cells were inoculated in each well of a 96-well culture plate, and treated by adding different concentrations (0-10 μM) of compounds to be assayed. Each group was assayed in triplicate. Blank wells (containing medium only) and control wells (inoculated cells without being treated with drug) were set. Cells were cultured for 120 hours. 40 μL of Cell Titer-Glo solutions were added to each well, and the cells were incubated with shaking for 20 min in the dark. 100 μL of solution was transferred from each well to a 96-well blank plate, and the luminescence value was read by Biotek Synergy HI multifunctional microplate reader. Inhibition rate (%)=100%×(control well−assay well)/(control well−blank well)

TOV21G (ovarian cancer) = test: Cell proliferation inhibition in vitro, CellTiter-Glo, TOV21G; format: cell-based; conditions: Homo sapiens; TOV21G cells, 120 hours, CellTiter-Glo; read-out: TOV21G/IC50/μM
Method: as §1, §2
TOV21G cells were cultured in MCDB105/M199 medium (containing 15% of FBS), and used for assaying when the cell confluence reached 85% or more. About 1000 cells were inoculated in each well of a 96-well culture plate, and cultured for 24 hours. Different concentrations (0-10 μM) of compounds to be assayed were added to treat the cells. Each group was assayed in triplicate. Blank wells (containing medium only) and control wells (inoculated cells without being treated with drug) were set. Cells were cultured for 120 hours. 40 μL of Cell Titer-Glo solutions (Promega, #G7573) were added to each well, and the cells were incubated with shaking for 20 min in the dark. 100 μL of solution was transferred from each well to a 96-well blank plate (Corning, #3917), and the luminescence value was read by Biotek Synergy H1 multifunctional microplate reader.

Sequence of ATR kinase (Q13535 whole entry): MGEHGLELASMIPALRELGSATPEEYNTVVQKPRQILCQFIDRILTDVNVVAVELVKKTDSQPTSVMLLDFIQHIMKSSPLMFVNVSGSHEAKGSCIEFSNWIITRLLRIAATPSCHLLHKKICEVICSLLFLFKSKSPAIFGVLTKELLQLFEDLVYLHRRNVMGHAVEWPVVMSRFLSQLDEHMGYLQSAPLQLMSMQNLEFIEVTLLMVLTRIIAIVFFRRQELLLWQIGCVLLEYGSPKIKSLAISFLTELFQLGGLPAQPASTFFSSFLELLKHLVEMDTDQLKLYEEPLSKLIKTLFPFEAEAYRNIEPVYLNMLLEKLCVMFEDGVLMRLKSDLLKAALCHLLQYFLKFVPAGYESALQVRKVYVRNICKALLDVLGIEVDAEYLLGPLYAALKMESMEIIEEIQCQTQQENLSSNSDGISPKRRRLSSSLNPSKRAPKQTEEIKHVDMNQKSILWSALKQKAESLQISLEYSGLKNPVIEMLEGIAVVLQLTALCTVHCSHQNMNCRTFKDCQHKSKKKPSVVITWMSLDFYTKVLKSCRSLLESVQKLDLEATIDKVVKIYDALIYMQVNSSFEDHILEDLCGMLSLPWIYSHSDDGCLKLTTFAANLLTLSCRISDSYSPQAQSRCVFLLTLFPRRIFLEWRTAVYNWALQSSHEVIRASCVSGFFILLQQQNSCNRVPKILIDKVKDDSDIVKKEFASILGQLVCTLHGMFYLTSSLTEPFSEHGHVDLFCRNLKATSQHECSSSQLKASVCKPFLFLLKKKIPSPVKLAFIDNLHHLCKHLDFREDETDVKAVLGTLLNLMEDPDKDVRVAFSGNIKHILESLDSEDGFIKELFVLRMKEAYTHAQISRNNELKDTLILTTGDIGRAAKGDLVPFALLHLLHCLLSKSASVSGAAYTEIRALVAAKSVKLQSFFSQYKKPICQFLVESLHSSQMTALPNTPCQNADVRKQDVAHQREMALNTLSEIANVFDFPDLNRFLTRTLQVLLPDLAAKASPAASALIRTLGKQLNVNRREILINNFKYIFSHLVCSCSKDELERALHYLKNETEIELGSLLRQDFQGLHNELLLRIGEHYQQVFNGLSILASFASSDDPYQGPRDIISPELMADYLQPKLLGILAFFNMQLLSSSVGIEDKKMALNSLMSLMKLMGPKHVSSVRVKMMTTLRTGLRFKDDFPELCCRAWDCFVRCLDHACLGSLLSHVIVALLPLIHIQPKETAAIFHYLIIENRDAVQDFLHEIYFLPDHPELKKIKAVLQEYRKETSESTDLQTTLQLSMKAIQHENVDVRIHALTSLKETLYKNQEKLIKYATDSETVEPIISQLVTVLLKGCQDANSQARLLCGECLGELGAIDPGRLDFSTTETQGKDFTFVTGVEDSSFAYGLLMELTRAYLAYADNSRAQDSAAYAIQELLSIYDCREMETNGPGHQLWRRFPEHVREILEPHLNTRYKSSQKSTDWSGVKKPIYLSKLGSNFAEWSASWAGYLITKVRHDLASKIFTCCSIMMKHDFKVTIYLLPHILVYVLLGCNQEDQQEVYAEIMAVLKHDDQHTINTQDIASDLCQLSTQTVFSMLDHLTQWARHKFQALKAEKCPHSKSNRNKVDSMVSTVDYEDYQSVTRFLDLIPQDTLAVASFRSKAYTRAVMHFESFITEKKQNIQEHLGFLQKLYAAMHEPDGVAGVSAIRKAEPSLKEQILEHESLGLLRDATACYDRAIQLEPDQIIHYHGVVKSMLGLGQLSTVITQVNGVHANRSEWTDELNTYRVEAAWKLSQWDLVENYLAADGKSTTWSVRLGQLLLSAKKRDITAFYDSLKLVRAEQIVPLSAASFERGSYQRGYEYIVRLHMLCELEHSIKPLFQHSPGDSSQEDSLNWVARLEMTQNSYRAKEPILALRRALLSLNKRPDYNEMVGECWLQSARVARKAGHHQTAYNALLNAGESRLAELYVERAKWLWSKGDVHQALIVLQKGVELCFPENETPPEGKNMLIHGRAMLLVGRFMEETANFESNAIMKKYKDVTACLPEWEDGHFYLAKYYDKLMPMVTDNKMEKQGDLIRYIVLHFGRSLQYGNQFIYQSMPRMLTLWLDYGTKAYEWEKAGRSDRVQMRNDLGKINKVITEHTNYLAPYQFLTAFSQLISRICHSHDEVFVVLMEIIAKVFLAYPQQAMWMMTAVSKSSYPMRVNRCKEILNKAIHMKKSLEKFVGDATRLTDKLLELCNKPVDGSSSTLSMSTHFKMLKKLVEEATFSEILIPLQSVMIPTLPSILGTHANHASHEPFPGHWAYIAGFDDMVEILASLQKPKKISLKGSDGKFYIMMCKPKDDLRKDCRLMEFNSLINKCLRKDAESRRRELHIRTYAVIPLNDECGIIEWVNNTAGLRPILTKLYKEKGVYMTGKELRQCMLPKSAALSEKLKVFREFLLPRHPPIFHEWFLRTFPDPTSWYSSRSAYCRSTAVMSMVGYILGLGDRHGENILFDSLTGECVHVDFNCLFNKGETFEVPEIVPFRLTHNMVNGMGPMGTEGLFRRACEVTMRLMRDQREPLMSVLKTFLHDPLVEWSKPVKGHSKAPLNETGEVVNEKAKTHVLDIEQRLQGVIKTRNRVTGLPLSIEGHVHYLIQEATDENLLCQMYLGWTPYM
Sequence of ATR kinase (Q8WXE1 whole entry partner): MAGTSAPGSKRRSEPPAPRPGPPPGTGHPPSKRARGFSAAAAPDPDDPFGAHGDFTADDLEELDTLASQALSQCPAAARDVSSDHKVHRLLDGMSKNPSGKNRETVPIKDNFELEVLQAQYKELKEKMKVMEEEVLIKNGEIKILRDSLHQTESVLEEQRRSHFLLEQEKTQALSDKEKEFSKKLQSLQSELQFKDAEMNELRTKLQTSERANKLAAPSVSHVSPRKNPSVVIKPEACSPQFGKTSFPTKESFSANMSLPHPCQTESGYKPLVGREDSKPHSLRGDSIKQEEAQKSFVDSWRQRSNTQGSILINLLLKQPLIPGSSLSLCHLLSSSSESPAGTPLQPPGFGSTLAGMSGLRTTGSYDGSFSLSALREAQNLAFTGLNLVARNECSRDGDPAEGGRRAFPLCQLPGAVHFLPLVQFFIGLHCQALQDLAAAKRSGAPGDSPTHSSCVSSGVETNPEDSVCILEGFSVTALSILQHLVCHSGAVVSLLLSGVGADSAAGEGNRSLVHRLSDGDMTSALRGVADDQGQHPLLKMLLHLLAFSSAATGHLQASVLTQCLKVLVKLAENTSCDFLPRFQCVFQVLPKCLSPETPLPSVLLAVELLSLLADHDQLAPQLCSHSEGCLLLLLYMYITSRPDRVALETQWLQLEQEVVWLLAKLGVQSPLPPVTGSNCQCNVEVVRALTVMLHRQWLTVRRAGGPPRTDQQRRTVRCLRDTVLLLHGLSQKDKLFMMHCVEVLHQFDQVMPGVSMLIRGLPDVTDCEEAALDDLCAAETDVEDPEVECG

Structure (SMILES) | IC50 (ATR kinase) [nM] | IC50 (MV4-11 (leukemia)) [µM] | IC50 (TOV21G (ovarian cancer)) [µM]
Cc1nn(-c2cncc(C#N)c2)c(C)c1-c1cc(N2CCOC[C@H]2C)nc(-c2cc(F)cc3[nH]ccc23)n1 [Compound A9] | 16 | 0.198 | 0.28
Cc1nn(-c2cnccc2Cl)c(C)c1-c1cc(N2CCOC[C@H]2C)nc(-c2cc(F)cc3[nH]ccc23)n1 [Compound A10] | 20 | 0.206 | 0.556
Cc1nn(-c2cncc(C(F)(F)F)c2)c(C)c1-c1cc(N2CCOC[C@H]2C)nc(-c2cc(F)cc3[nH]ccc23)n1 [Compound A13] | 88 | 2.2 | 
Cc1nn(-c2cnccc2F)c(C)c1-c1cc(N2CCOC[C@H]2C)nc(-c2cc(F)cc3[nH]ccc23)n1 [Compound A14] | 9 | 0.231 | 0.522
Cc1nn(-c2cccnn2)c(C)c1-c1cc(N2CCOC[C@H]2C)nc(-c2cc(F)cc3[nH]ccc23)n1 [Compound A16] | 1 | 0.082 | 0.166
Cc1nn(-c2cncc(Cl)c2)c(C)c1-c1cc(N2CCOC[C@H]2C)nc(-c2ccnc3[nH]ccc23)n1 [Compound A18] | 1 | 0.451 | 0.208
Cc1c(-c2cc(N3CCOC[C@H]3C)nc(-c3ccnc4[nH]ccc34)n2)c(C(F)(F)F)nn1-c1cncc(F)c1 [Compound A20] | 11 | 0.528 | 0.284
Cc1nn(-c2cncc(C(F)F)c2)c(C)c1-c1cc(N2CCOC[C@H]2C)nc(-c2ccnc3[nH]ccc23)n1 [Compound A21] | 6 | 0.332 | 0.537
Cc1nn(-c2cncc(O)c2)c(C)c1-c1cc(N2CCOC[C@H]2C)nc(-c2cccc3[nH]ccc23)n1 [Compound A23] | 3 | 0.175 | 0.24
Cc1nn(-c2cncc(C(N)=O)c2)c(C)c1-c1cc(N2CCOC[C@H]2C)nc(-c2cccc3[nH]ccc23)n1 [Compound A24] | 1 | 0.18 | 0.22
Cc1nn(-c2ccc(=O)[nH]c2)c(C)c1-c1cc(N2CCOC[C@H]2C)nc(-n2c(NCCO)nc3ccccc32)n1 [Compound B13] | 5 |  | 

Continued, values first:

IC50 (ATR kinase) [nM] | IC50 (MV4-11 (leukemia)) [µM] | IC50 (TOV21G (ovarian cancer)) [µM] | Structure (SMILES)
11 | 0.658 |  | COc1cncc(-n2nc(C)c(-c3cc(N4CCOC[C@H]4C)nc(-c4cc(F)cc5[nH]ccc45)n3)c2C)c1 [Compound A1]
8 | 0.635 | 0.397 | Cc1nn(-c2ccncc2)c(C)c1-c1cc(N2CCOC[C@H]2C)nc(-c2cc(F)cc3[nH]ccc23)n1 [Compound A2]
10 | 0.193 | 0.313 | Cc1nn(-c2cccnc2)c(C)c1-c1cc(N2CCOC[C@H]2C)nc(-c2cc(F)cc3[nH]ccc23)n1 [Compound A4]
30 | 0.778 | 0.647 | COc1ccc(-n2nc(C)c(-c3cc(N4CCOC[C@H]4C)nc(-c4cc(F)cc5[nH]ccc45)n3)c2C)cn1 [Compound A5]
14 | 0.656 | 0.423 | Cc1nn(-c2ccc(F)nc2)c(C)c1-c1cc(N2CCOC[C@H]2C)nc(-c2cc(F)cc3[nH]ccc23)n1 [Compound A6]
6 | 0.1 | 0.33 | Cc1nn(-c2ccc(=O)[nH]c2)c(C)c1-c1cc(N2CCOC[C@H]2C)nc(-c2cc(F)cc3[nH]ccc23)n1 [Compound A7]
9 | 0.382 | 0.274 | Cc1ncccc1-n1nc(C)c(-c2cc(N3CCOC[C@H]3C)nc(-c3cc(F)cc4[nH]ccc34)n2)c1C [Compound A8]
36 | 0.801 |  | CCc1cncc(-n2nc(C)c(-c3cc(N4CCOC[C@H]4C)nc(-c4cc(F)cc5[nH]ccc45)n3)c2C)c1 [Compound A12]
2 | 0.107 | 0.234 | Cc1nn(-c2ccnnc2)c(C)c1-c1cc(N2CCOC[C@H]2C)nc(-c2cc(F)cc3[nH]ccc23)n1 [Compound A15]
